Assay results published in patent US9522914B2, “Azole derivative” (TAISHO PHARMACEUTICAL CO., LTD, priority 2011, dated 2016).

Target: Human V1b receptor (Homo sapiens (Human), UniProt P47901)
Experiment: Binding Test for V1b Receptor ([3H]AVP, crude membrane preparation of 293FT cells)
Settings: inhibition of [3H]AVP binding (0.4 to 1 nmol/L), room temperature, 60 minutes
Description: Binding Test for V1b Receptor
Human V1b receptor was transiently expressed in 293FT cells (Invitrogen). The cells were collected and then homogenated in a 15 mmol/L tris-hydrochloric acid buffer (pH 7.4 and containing 2 mmol/L magnesium chloride, 0.3 mmol/L ethylenediaminetetracetic acid, and 1 mmol/L glycol ether diaminetetraacetic acid). The resulting homogenate was centrifuged at 50,000×g at 4° C. for 20 minutes. The precipitate was resuspended in a 75 mmol/L tris-hydrochloric acid buffer (pH 7.4 and containing 12.5 mmol/L magnesium chloride, 0.3 mmol/L ethylenediaminetetracetic acid, 1 mmol/L glycol ether diaminetetraacetic acid, and 250 mmol/L sucrose) to give a crude membrane preparation, which was stored at −80° C. until the binding test was initiated. In the binding test, the crude membrane preparation was diluted with a 50 mmol/L tris-hydrochloric acid buffer (pH 7.4 and containing 10 mmol/L magnesium chloride and 0.1% bovine serum albumin) and mixed with each test compound and [^3H]AVP (final concentration: 0.4 to 1 nmol/L), followed by incubation at room temperature for 60 minutes. The test compound was serially diluted with DMSO so that it would have final concentrations of 0.01 nmol/L to 1 μmol/L at the time of mixing. After the incubation, the mixture was suction filtered through a GF/C filter that was preliminarily impregnated with 0.3% polyethyleneimine. The GF/C filter was dried and after adding a scintillator, the residual radioactivity on the filter was measured using TopCount (PerkinElmer Inc.). The radioactivity in the presence of unlabeled AVP at […] was defined as 0%, and the radioactivity in the absence of unlabeled AVP was defined as 100%. A dose-response curve was plotted from radio activities in the presence of a test compound at various concentrations, and the 50% inhibitory concentration (IC50 value) of the test compound was calculated.

Chain of Human V1b receptor (P47901 whole entry): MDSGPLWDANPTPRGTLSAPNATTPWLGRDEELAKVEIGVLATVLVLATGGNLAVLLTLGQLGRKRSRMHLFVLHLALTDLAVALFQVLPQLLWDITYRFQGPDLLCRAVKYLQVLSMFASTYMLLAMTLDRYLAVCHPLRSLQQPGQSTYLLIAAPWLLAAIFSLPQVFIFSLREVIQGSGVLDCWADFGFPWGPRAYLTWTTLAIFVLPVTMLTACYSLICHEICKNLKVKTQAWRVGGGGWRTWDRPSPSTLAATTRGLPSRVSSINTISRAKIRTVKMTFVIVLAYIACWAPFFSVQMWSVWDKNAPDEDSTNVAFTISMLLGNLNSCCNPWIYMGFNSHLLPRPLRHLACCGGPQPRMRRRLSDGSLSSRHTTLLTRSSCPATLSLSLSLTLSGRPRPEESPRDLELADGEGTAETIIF

Structure (SMILES) | IC50 [nM]
COc1cccc(-c2nc(-c3ccc(CCN4CCCCC4)cc3)cn2CC(=O)NC(C)C)n1 [Example A-28, 2-[2-(6-methoxypyridin-2-yl)-4-{4-[2-(piperidin-1-yl)ethyl]phenyl}-1H-imidazol-1-yl]-N-(propan-2-yl)acetamide] | 10 to 100
CC(C)NC(=O)Cn1cc(-c2ccc(CCN3CCOCC3)cn2)nc1-c1cccc(Cl)c1 [Example A-26, 2-[2-(3-chlorophenyl)-4-{5-[2-(morpholin-4-yl)ethyl]pyridin-2-yl}-1H-imidazol-1-yl]-N-(propan-2-yl)acetamide] | 3.4
CC(C)NC(=O)Cn1cc(C(=O)N2CCC(CCN3CCOCC3)C2)nc1-c1cccc(Cl)c1 (stereo not shown) [Example A-49, 2-[2-(3-chlorophenyl)-4-({3-[2-(morpholin-4-yl)ethyl]pyrrolidin-1-yl}carbonyl)-1H-imidazol-1-yl]-N-(propan-2-yl)acetamide] | 100 to 1000
CCC1COCCN1CCc1ccc(-c2nc(-c3cccc(OC)c3)n(CC(=O)NC(C)C)n2)cc1 (stereo not shown) [Example B-31, 2-[3-{4-[2-(3-ethylmorpholin-4-yl)ethyl]phenyl}-5-(3-methoxyphenyl)-1H-1,2,4-triazol-1-yl]-N-(propan-2-yl)acetamide] | 10 to 100
CC(C)NC(=O)Cc1nn(-c2ccc(CCN3CCOCC3)cn2)c(=O)n1-c1ccc(F)c(Cl)c1 [Example D-28, 2-[4-(3-chloro-4-fluorophenyl)-1-{5-[2-(morpholin-4-yl)ethyl]pyridin-2-yl}-5-oxo-4,5-dihydro-1H-1,2,4-triazol-3-yl]-N-(propan-2-yl)acetamide] | 10 to 100
COc1cccc(-c2nc(-c3ccc(CCN4C5CCC4COC5)cc3)nn2CC(=O)NC(C)C)c1 [Example B-17, 2-[5-(3-methoxyphenyl)-3-{4-[2-(3-oxa-8-azabicyclo[3.2.1]oct-8-yl)ethyl]phenyl}-1H-1,2,4-triazol-1-yl]-N-(propan-2-yl)acetamide] | 1.4
CC(C)NC(=O)Cc1nc(-c2ccc(CCN3CCOCC3)cc2)nn1-c1cccc(Cl)c1 [Example C-21, 2-[1-(3-chlorophenyl)-3-{4-[2-(morpholin-4-yl)ethyl]phenyl}-1H-1,2,4-triazol-5-yl]-N-(propan-2-yl)acetamide] | 14
COc1cc(-c2nc(-c3ccc(CCN4CC(F)C4)cc3)cn2CC(=O)NC(C)C)ccc1F [Example A-19, 2-[4-{4-[2-(3-fluoroazetidin-1-yl)ethyl]phenyl}-2-(4-fluoro-3-methoxyphenyl)-1H-imidazol-1-yl]-N-(propan-2-yl)acetamide] | 10 to 100
CC(C)NC(=O)Cn1nc(-c2ccc(CCN3CCCCC3)cc2)cc1-c1cccc(Cl)c1 [Example C-06, 2-[5-(3-chlorophenyl)-3-{4-[2-(piperidin-1-yl)ethyl]phenyl}-1H-pyrazol-1-yl]-N-(propan-2-yl)acetamide] | 17
CC(C)NC(=O)Cc1nn(-c2ccc(CCN3C4CCC3COC4)cn2)c(=O)n1-c1cccc(Cl)c1 [Example D-02, 2-[4-(3-chlorophenyl)-1-{5-[2-(3-oxa-8-azabicyclo[3.2.1]oct-8-yl)ethyl]pyridin-2-yl}-5-oxo-4,5-dihydro-1H-1,2,4-triazol-3-yl]-N-(propan-2-yl)acetamide] | 10 to 100
CC(C)NC(=O)Cn1nc(-c2ccc(CCN3CCOCC3)cn2)nc1-c1cccc(Cl)c1 [Example B-10, 2-[5-(3-chlorophenyl)-3-{5-[2-(morpholin-4-yl)ethyl]pyridin-2-yl}-1H-1,2,4-triazol-1-yl]-N-(propan-2-yl)acetamide] | 12
CC(C)NC(=O)Cc1nc(-c2cccc(CCN3CCOCC3)c2)sc1-c1cccc(Cl)c1 [Example C-17, 2-[5-(3-chlorophenyl)-2-{3-[2-(morpholin-4-yl)ethyl]phenyl}-1,3-thiazol-4-yl]-N-(propan-2-yl)acetamide] | 100 to 1000
COc1cc(-c2nc(-c3ccc(CCN4CCC(OC)CC4)cc3)cn2CC(=O)NC(C)C)ccc1F [Example A-24, 2-[2-(4-fluoro-3-methoxyphenyl)-4-{4-[2-(4-methoxypiperidin-1-yl)ethyl]phenyl}-1H-imidazol-1-yl]-N-(propan-2-yl)acetamide] | 10 to 100
CCC1COCCN1CCc1ccc(-n2nc(CC(=O)NC(C)C)n(-c3cccc(Cl)c3)c2=O)cc1 [Example D-54, 2-[4-(3-chlorophenyl)-1-{4-[2-(3-ethylmorpholin-4-yl)ethyl]phenyl}-5-oxo-4,5-dihydro-1H-1,2,4-triazol-3-yl]-N-(propan-2-yl)acetamide] | 10 to 100
CC(C)NC(=O)Cc1nn(-c2ccc(CCN3C4CCC3COC4)cc2)c(=O)n1-c1ccc(F)c(Cl)c1 [Example D-27, 2-[4-(3-chloro-4-fluorophenyl)-1-{4-[2-(3-oxa-8-azabicyclo[3.2.1]oct-8-yl)ethyl]phenyl}-5-oxo-4,5-dihydro-1H-1,2,4-triazol-3-yl]-N-(propan-2-yl)acetamide] | 5.3
COc1cc(-n2c(CC(=O)NC(C)(C)C)nn(-c3ccc(CCN4C5CCC4COC5)cn3)c2=O)ccc1F [Example D-12, N-tert-butyl-2-[4-(4-fluoro-3-methoxyphenyl)-1-{5-[2-(3-oxa-8-azabicyclo[3.2.1]oct-8-yl)ethyl]pyridin-2-yl}-5-oxo-4,5-dihydro-1H-1,2,4-triazol-3-yl]acetamide] | 7
CC(C)NC(=O)Cc1nc(-c2ccc(CCN3CCOCC3)cc2)oc1-c1cccc(Cl)c1 [Example C-09, 2-[5-(3-chlorophenyl)-2-{4-[2-(morpholin-4-yl)ethyl]phenyl}-1,3-oxazol-4-yl]-N-(propan-2-yl)acetamide] | 27
COc1cccc(-c2nc(-c3ccc(CCN4CCC(C(F)(F)F)CC4)cc3)nn2CC(=O)NC(C)C)c1 [Example B-38, 2-[5-(3-methoxyphenyl)-3-(4-{2-[4-(trifluoromethyl)piperidin-1-yl]ethyl}phenyl)-1H-1,2,4-triazol-1-yl]-N-(propan-2-yl)acetamide] | 10 to 100
CC(C)NC(=O)Cn1cc(-c2ccc(CCN3CCOCC3)cc2)nc1-c1ccc(F)c(Cl)c1 [Example A-39, 2-[2-(3-chloro-4-fluorophenyl)-4-{4-[2-(morpholin-4-yl)ethyl]phenyl}-1H-imidazol-1-yl]-N-(propan-2-yl)acetamide] | 1
COc1cccc(-c2nc(-c3ccc(CCN4CCOCC4)cn3)nn2CC(=O)NC(C)(C)C)c1 [Example B-14, N-tert-butyl-2-[5-(3-methoxyphenyl)-3-{5-[2-(morpholin-4-yl)ethyl]pyridin-2-yl}-1H-1,2,4-triazol-1-yl]acetamide] | 6.6
COc1cc(-n2c(CC(=O)NC(C)(C)C)nn(-c3ccc(CCN4C5CCC4COC5)cc3)c2=O)ccc1F [Example D-10, N-tert-butyl-2-[4-(4-fluoro-3-methoxyphenyl)-1-{4-[2-(3-oxa-8-azabicyclo[3.2.1]oct-8-yl)ethyl]phenyl}-5-oxo-4,5-dihydro-1H-1,2,4-triazol-3-yl]acetamide] | 7.1
CC(C)NC(=O)Cn1nc(-c2ccc(CCN3C4CCC3COC4)cn2)nc1-c1ccc(F)c(Cl)c1 [Example B-08, 2-[5-(3-chloro-4-fluorophenyl)-3-{5-[2-(3-oxa-8-azabicyclo[3.2.1]oct-8-yl)ethyl]pyridin-2-yl}-1H-1,2,4-triazol-1-yl]-N-(propan-2-yl)acetamide] | 2.8
CC(C)NC(=O)Cn1cc(-c2ccc(CCN3CCCCC3)cc2)nc1-c1cccc(Cl)c1 [Example A-01, 2-[2-(3-chlorophenyl)-4-{4-[2-(piperidin-1-yl)ethyl]phenyl}-1H-imidazol-1-yl]-N-(propan-2-yl)acetamide] | 15
CC(C)NC(=O)Cn1cc(-c2ccc(CCN3CCC(CO)C3)cc2)nc1-c1cccc(Cl)c1 (stereo not shown) [Example A-07, 2-[2-(3-chlorophenyl)-4-(4-{2-[3-(hydroxymethyl)pyrrolidin-1-yl]ethyl}phenyl)-1H-imidazol-1-yl]-N-(propan-2-yl)acetamide] | 18
CC(C)NC(=O)Cn1cc(-c2ccc(CCN3CCOCC3)cc2F)nc1-c1cccc(Cl)c1 [Example A-43, 2-[2-(3-chlorophenyl)-4-{2-fluoro-4-[2-(morpholin-4-yl)ethyl]phenyl}-1H-imidazol-1-yl]-N-(propan-2-yl)acetamide] | 0.49
CC(C)NC(=O)Cn1cc(-c2cccc(OCCCN3CCCCC3)c2)nc1-c1cccc(Cl)c1 [Example A-35, 2-[2-(3-chlorophenyl)-4-{3-[3-(piperidin-1-yl)propoxy]phenyl}-1H-imidazol-1-yl]-N-(propan-2-yl)acetamide] | 100 to 1000
CC(C)NC(=O)Cc1nn(-c2ccc(CC(C)N3CCOCC3)cc2)c(=O)n1-c1cccc(Cl)c1 [Example D-17, 2-[4-(3-chlorophenyl)-1-{4-[2-(morpholin-4-yl)propyl]phenyl}-5-oxo-4,5-dihydro-1H-1,2,4-triazol-3-yl]-N-(propan-2-yl)acetamide] | 3.9
COc1cc(-n2nc(CC(=O)NC(C)C)n(-c3cccc(Cl)c3)c2=O)ccc1CCN1C2CCC1COC2 [Example D-23, 2-[4-(3-chlorophenyl)-1-{3-methoxy-4-[2-(3-oxa-8-azabicyclo[3.2.1]oct-8-yl)ethyl]phenyl}-5-oxo-4,5-dihydro-1H-1,2,4-triazol-3-yl]-N-(propan-2-yl)acetamide] | 3.3
